Measurements published in ChEMBL document CHEMBL1201862, “PubChem BioAssay data set” (2004).
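Method: 48-hour compound exposure of cells in 96-well plates, five concentrations, linear interpolation of endpoints. GI50 = concentration required for 50% inhibition of growth.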 Calls of active or inactive are those of the source. No stated cut-off is given here; in the data, active = GI50 up to about 1.1 µM and inactive = higher.

Assays:
Assay in all cases: NCI-60 cell line screen, 48 h
[1] = test system: SK-MEL-2
[2] = test system: UO-31
[3] = test system: SF-268
[4] = test system: KM12
[5] = test system: NCI-H23
[6] = test system: HOP-92
[7] = test system: 786-0
[8] = test system: HOP-62
[9] = test system: ACHN
[10] = test system: NCI-H460
[11] = test system: IGROV-1
[12] = test system: NCI-H226
[13] = test system: HCT-15
[14] = test system: A498
[15] = test system: NCI-H522
[16] = test system: CAKI-1
[17] = test system: EKVX
[18] = test system: SF-539

C=CCc1cc(-c2cc(CC=C)c(O)c(CNC)c2)cc(CNC)c1O
GI50 [1]: 18.6 µM (inactive)
GI50 [2]: 12.9 µM (inactive)
GI50 [3]: 16.3 µM (inactive)
GI50 [4]: 16.6 µM (inactive)
GI50 [5]: 15.8 µM (inactive)
GI50 [6]: 11.1 µM (inactive)
GI50 [7]: 15.5 µM (inactive)
GI50 [8]: 18.8 µM (inactive)
GI50 [9]: 17.8 µM (inactive)
GI50 [10]: 16.3 µM (inactive)
GI50 [11]: 18 µM (inactive)
GI50 [12]: 16.9 µM (inactive)
GI50 [13]: 16.6 µM
GI50 [14]: 20.3 µM (inactive)
GI50 [15]: 14.8 µM (inactive)

COc1ccc(/C=N/N=C(\N)NO)cc1O
GI50 [16]: 48.2 µM (inactive)
GI50 [1]: 76.4 µM (inactive)
GI50 [2]: 45 µM (inactive)
GI50 [3]: 32 µM (inactive)
GI50 [4]: 45.8 µM (inactive)
GI50 [5]: 31.9 µM (inactive)
GI50 [6]: 20.6 µM (inactive)
GI50 [7]: 18.5 µM (inactive)
GI50 [17]: 29.3 µM (inactive)
GI50 [18]: 31.2 µM (inactive)
GI50 [10]: 25.5 µM (inactive)
GI50 [11]: 84.1 µM (inactive)
GI50 [12]: 33.4 µM (inactive)
GI50 [13]: 42.9 µM
GI50 [15]: > 10 µM (inactive)

N#CC1CC2(C(=O)C1=O)c1ccccc1-c1ccccc12 (stereo not given)
GI50 [16]: > 100 µM (inactive)
GI50 [1]: > 100 µM (inactive)
GI50 [2]: > 100 µM (inactive)
GI50 [3]: > 100 µM (inactive)
GI50 [4]: > 100 µM (inactive)
GI50 [5]: > 100 µM (inactive)
GI50 [7]: > 100 µM (inactive)
GI50 [17]: > 100 µM (inactive)
GI50 [8]: > 100 µM (inactive)
GI50 [9]: > 100 µM (inactive)
GI50 [10]: > 100 µM (inactive)
GI50 [11]: > 100 µM (inactive)
GI50 [12]: > 100 µM (inactive)
GI50 [13]: > 100 µM
GI50 [14]: > 100 µM (inactive)
GI50 [15]: > 100 µM (inactive)

N#CC(C#N)=C1SCC(=O)CS1
GI50 [16]: > 100 µM (inactive)
GI50 [2]: > 100 µM (inactive)
GI50 [3]: > 100 µM (inactive)
GI50 [4]: > 100 µM (inactive)
GI50 [5]: > 100 µM (inactive)
GI50 [6]: > 100 µM (inactive)
GI50 [7]: > 100 µM (inactive)
GI50 [17]: > 100 µM (inactive)
GI50 [8]: > 100 µM (inactive)
GI50 [18]: > 100 µM (inactive)
GI50 [10]: > 100 µM (inactive)
GI50 [11]: > 100 µM (inactive)
GI50 [12]: > 100 µM (inactive)
GI50 [13]: > 100 µM
GI50 [14]: > 100 µM (inactive)
GI50 [15]: > 100 µM (inactive)

Cc1ccc(N2Cc3c(ccc4ccccc34)OP2(=S)N2CCCC2)cc1 (stereo not given)
GI50 [16]: > 100 µM (inactive)
GI50 [1]: > 100 µM (inactive)
GI50 [2]: 85.7 µM (inactive)
GI50 [3]: > 100 µM (inactive)
GI50 [4]: > 100 µM (inactive)
GI50 [5]: > 100 µM (inactive)
GI50 [6]: > 100 µM (inactive)
GI50 [17]: > 100 µM (inactive)
GI50 [8]: > 100 µM (inactive)
GI50 [18]: > 100 µM (inactive)
GI50 [10]: > 100 µM (inactive)
GI50 [11]: > 100 µM (inactive)
GI50 [12]: > 100 µM (inactive)
GI50 [13]: > 100 µM
GI50 [14]: > 56.5 µM (inactive)
GI50 [15]: > 100 µM (inactive)

C=Cc1c(-c2ccccc2)cnc2[nH]c3ccccc3c12
GI50 [16]: > 50 µM (inactive)
GI50 [1]: > 50 µM (inactive)
GI50 [2]: > 50 µM (inactive)
GI50 [3]: > 50 µM (inactive)
GI50 [4]: 2.43 µM (inactive)
GI50 [5]: > 50 µM (inactive)
GI50 [7]: > 50 µM (inactive)
GI50 [17]: 3.4 µM (inactive)
GI50 [8]: > 50 µM (inactive)
GI50 [9]: > 50 µM (inactive)
GI50 [10]: > 50 µM (inactive)
GI50 [11]: > 50 µM (inactive)
GI50 [13]: > 50 µM
GI50 [14]: > 50 µM (inactive)
GI50 [15]: > 50 µM (inactive)

Cc1cccc2c1CCC21OC(=O)c2c1ccc1ccccc21 (stereo not given)
GI50 [16]: 34.5 µM (inactive)
GI50 [1]: 24.5 µM (inactive)
GI50 [2]: 47.4 µM (inactive)
GI50 [3]: > 100 µM (inactive)
GI50 [4]: 56.9 µM (inactive)
GI50 [5]: 32.9 µM (inactive)
GI50 [7]: 83.9 µM (inactive)
GI50 [17]: 68.5 µM (inactive)
GI50 [8]: 70.1 µM (inactive)
GI50 [9]: 79.1 µM (inactive)
GI50 [10]: 42.2 µM (inactive)
GI50 [11]: 55.2 µM (inactive)
GI50 [12]: 56.4 µM (inactive)
GI50 [13]: 35.6 µM
GI50 [14]: 16.8 µM (inactive)
GI50 [15]: > 100 µM (inactive)

CCCC(O)c1cn(-c2cccc(S(=O)(=O)O)c2)nn1 (stereo not given)
GI50 [16]: > 100 µM (inactive)
GI50 [1]: > 100 µM (inactive)
GI50 [2]: > 100 µM (inactive)
GI50 [3]: > 100 µM (inactive)
GI50 [4]: > 100 µM (inactive)
GI50 [5]: > 100 µM (inactive)
GI50 [6]: > 100 µM (inactive)
GI50 [7]: > 100 µM (inactive)
GI50 [17]: > 100 µM (inactive)
GI50 [8]: > 100 µM (inactive)
GI50 [18]: > 100 µM (inactive)
GI50 [9]: > 100 µM (inactive)
GI50 [10]: > 100 µM (inactive)
GI50 [11]: > 100 µM (inactive)
GI50 [12]: > 100 µM (inactive)
GI50 [13]: > 100 µM
GI50 [14]: > 100 µM (inactive)
GI50 [15]: > 100 µM (inactive)

CCc1cccc(CC)c1NC(=O)C1=C(C)NC(C)=C(C(=O)Nc2c(CC)cccc2CC)C1c1ccc2c(c1)OCO2
GI50 [16]: 20.1 µM (inactive)
GI50 [1]: 18.6 µM (inactive)
GI50 [2]: 17.1 µM (inactive)
GI50 [3]: 18.1 µM (inactive)
GI50 [4]: 20.4 µM (inactive)
GI50 [5]: 17.6 µM (inactive)
GI50 [6]: 14 µM (inactive)
GI50 [7]: 16.4 µM (inactive)
GI50 [17]: 19.9 µM (inactive)
GI50 [8]: 19.2 µM (inactive)
GI50 [18]: 22.5 µM (inactive)
GI50 [9]: 19.4 µM (inactive)
GI50 [10]: 14 µM (inactive)
GI50 [11]: 18.8 µM (inactive)
GI50 [12]: 15 µM (inactive)
GI50 [13]: 12.4 µM
GI50 [14]: 21.7 µM (inactive)
GI50 [15]: 13.8 µM (inactive)
